Tests used:
SMAD2 = SMAD2 phosphorylation in fibroblasts (western blot); format: cell-based, human; conditions: TGFβ1- or LIF-stimulated fibroblasts
From the text: For western blot analysis, antibodies against STAT3 (#9134), pY705-STAT3 (#9145), SMAD2 (#3122), pSer465/467-SMAD2 (#3108), pY1022/1023-JAK1 (#3331), MLC2 (#3672), pThr18/19-MLC2 (#3674) were purchased from Cell Signaling (Cell Signaling Technology, Beverly Mass.), α-tubulin from sigma (T4026, Sigma, Saint Louis, Mo.); JAK1 from Biolegend (#604402, Biolegend, San Diego, Calif.), GP-130 (#sc-655) and RhoA (#sc-418, Santa Cruz Biotechnology, Santa Cruz, Calif.), and alpha-smooth muscle actin (α-SMA) from Abcam (#Ab5694, Abcam, Cambridge, Mass.). For immunofluorescence staining, antibodies against α-SMA and fibronectin were purchased from Sigma (#A2547 and F3648 respectively, Sigma, Saint Louis, Mo.). Chemical inhibitors used: Pyridone 6 (#42009, Calbiochem, Los Angeles, Calif.) was used at […], SB431542 (#1614, Tocris bioscience, Ellisville, Mo.) at 10 μM, Y27632 (#1254, Tocris bioscience, Ellisville, Mo.) and Actinomycin D (#856258, Sigma, Saint Louis, USA) at 5 μg/ml.
For immunoblotting analysis, cells were lysed on ice in lysis buffer (25 mM Tris (pH 6.8), 2% Sodium dodecyl sulfate (SDS), 5% glycerol, 1% beta-mercaptoethanol, 0.01% bromophenol blue). Equal amounts of protein from each sample were loaded on sodium dodecyl sulfate-polyacrylamide gel electrophoresis, separated, and transferred onto nitrocellulose. […]

hDF and hCAF = assay: Matrix remodelling (collagen gel contraction) assay; format: cell-based, human; conditions: collagen rich lattices
Protocol: (§1) 2.5×10^4 Fibroblasts were embedded in 100 μl of matrix gel (the Collagen-Matrigel mixture used for organotypic invasion assays) and plated into wells of a 96 well plate^57. After 1 h at 37° C., the matrices were overlaid with 100 μl serum-free medium (with either vehicle, cytokines or inhibitors) or CM. Every 2 days, medium was changed and at day 6 the gels were photographed and the respective diameters of the well and gel were measured using ImageJ. The percentage contraction was calculated using the formula 100*(well diameter−gel diameter)/well diameter.

fibroblasts = assay: Fibroblast contractility (collagen lattices) and pro-invasive activity (organotypic invasion) induced by human tumour cell conditioned media; format: cell-based; parameters: key to Fibroblasts contractile & pro-invasive phenotype: +: induction; −: no induction
Protocol: In this assay, hDF or CAFs were cultured during one week in serum-free medium (with either vehicle or cytokines) or CM before embedding in matrix gel. 5×10^5 fibroblasts were embedded in a 1 ml mixture of collagen I and Matrigel18. After the gel was set at 37° C. for 1 h, 5×10^5 SCC12 were plated on top of the gel in complete media. The next day, the gel was lifted onto individual collagen coated nylon discs resting on metal bridges and fed from underneath with daily changes of complete media (with either vehicle or inhibitors), allowing the epithelial layer to grow at an air-liquid interface.
After 5 days, cultures were fixed (4% paraformaldehyde+0.25% glutaraldehyde in PBS) and processed for haematoxylin and eosin (H&E) staining by standard methods. Invasion assay was measuring the total area of SCC cells and the area of non-invading SCC cells using imageJ software (http://rsbweb.nih.gov/ij/). The value of invasion index shown is the average 1−(non-invading area/total area) of at least ten fields from three or more independent experiments. Error bars are the standard deviation.
as §1
Neutralizing antibody against LIF (AB-250-NA, R&D, Minneapolis, Minn.), IL-6 R (AB-227-NA, R&D) or TGF beta-1,2,3 (MAB1835, R&D) were used at 10 μg/ml otherwise stated. Neutralizing antibody were incubated one hour with conditioned media before being used for matrix remodelling assay and fibroblasts stimulation to neutralize the biological activity of selected cytokines.
Cancer Cells were grown to confluence, washed twice with PBS and then incubated in serum-free medium at 37° C. After 48 hours, conditioned medium was collected, centrifugated at 5000 g for 5 minutes to remove cell debris and the supernatant stored at −80° C. For immunobloting analysis, fibroblasts were stimulated with cancer cells conditioned media for 5 min, otherwise stated, and lysed as described in the immunbloting section. To analyse LIF secretion upon TGFβ-1 stimulation, fibroblasts were stimulated with 2 ng/ml TGF beta-1 for 1, 4, 24 or 48 h in serum-free medium and conditioned media was prepared as below for ELISA analysis.

N#CCC(C1CCCC1)n1cc(-c2ncnc3[nH]ccc23)cn1 (stereo not shown) [Ruxolitinib, 3-Cyclopentyl-3-[4-(7H-pyrrolo[2,3-d]pyrimidin-4-yl)-1H-pyrazol-1-yl]propanenitrile]
effect on SMAD2 (SMAD2): no effect
TGFβ1 and LIF-dependent activation of hDF contractility (hDF and hCAF): completely inhibited
Fibroblasts contractile & pro-invasive phenotype (fibroblasts; A375M2 CM (h. melanoma), antibodies 10 μg·ml−1, αLIF (50)): −
Fibroblasts contractile & pro-invasive phenotype (fibroblasts; A375P CM (h. melanoma), antibodies 10 μg·ml−1): −
Fibroblasts contractile & pro-invasive phenotype (fibroblasts; A549 CM (h. lung carcinoma), antibodies 10 μg·ml−1): −
Fibroblasts contractile & pro-invasive phenotype (fibroblasts; CAL27 CM (human OSCC), antibodies 10 μg·ml−1, αLIF (50)): −
Fibroblasts contractile & pro-invasive phenotype (fibroblasts; CAL33 CM (human OSCC), antibodies 10 μg·ml−1): −
Fibroblasts contractile & pro-invasive phenotype (fibroblasts; CAL33_LIF CM (h. engineered cell line), antibodies 10 μg·ml−1, αLIF (50)): −
Fibroblasts contractile & pro-invasive phenotype (fibroblasts; CAL33_mock CM (h. engineered cell line), antibodies 10 μg·ml−1): −
Fibroblasts contractile & pro-invasive phenotype (fibroblasts; CAL60 CM (human OSCC), antibodies 10 μg·ml−1): −
Fibroblasts contractile & pro-invasive phenotype (fibroblasts; CAL166 CM (human OSCC), antibodies 10 μg·ml−1): −
Fibroblasts contractile & pro-invasive phenotype (fibroblasts; Detroit562 CM (human OSCC), antibodies 10 μg·ml−1): −
Fibroblasts contractile & pro-invasive phenotype (fibroblasts; LS174 CM (h. colon carcinoma), antibodies 10 μg·ml−1): −
Fibroblasts contractile & pro-invasive phenotype (fibroblasts; MDA-MB-231 CM (breast carcinoma), antibodies 10 μg·ml−1): −
Fibroblasts contractile & pro-invasive phenotype (fibroblasts; MDA-MB-468 CM (breast carcinoma), antibodies 10 μg·ml−1): −
Fibroblasts contractile & pro-invasive phenotype (fibroblasts; Mel501 CM (h. melanoma), antibodies 10 μg·ml−1): −
Fibroblasts contractile & pro-invasive phenotype (fibroblasts; Mel1205 CM (h. melanoma), antibodies 10 μg·ml−1): −
Fibroblasts contractile & pro-invasive phenotype (fibroblasts; SCC12 CM (human OSCC), antibodies 10 μg·ml−1): −
Fibroblasts contractile & pro-invasive phenotype (fibroblasts; SCC13 CM (human OSCC), antibodies 10 μg·ml−1): −
Fibroblasts contractile & pro-invasive phenotype (fibroblasts; SCC25 CM (human OSCC), antibodies 10 μg·ml−1): −
Fibroblasts contractile & pro-invasive phenotype (fibroblasts; Sbcl2 CM (h. melanoma), antibodies 10 μg·ml−1): −
Fibroblasts contractile & pro-invasive phenotype (fibroblasts; WM35 CM (h. melanoma), antibodies 10 μg·ml−1): −
Fibroblasts contractile & pro-invasive phenotype (fibroblasts; WM278 CM (h. melanoma), antibodies 10 μg·ml−1): −
Fibroblasts contractile & pro-invasive phenotype (fibroblasts; WM793 CM (h. melanoma), antibodies 10 μg·ml−1): −
Fibroblasts contractile & pro-invasive phenotype (fibroblasts; hPK CM, antibodies 10 μg·ml−1): −

From patent US20160237158A1, “Methods and Compositions for Targeting Tumor Microenvironment and for preventing Metastasis” (INSTITUT NATIONAL DE LA SANTÉ ET DA LA RECHERCHE MÉDICALE …, priority 2013, published 2016)
